Columns and labels:
[1] = heptane 10 g, toluene 0.1 g (internal standard), amine 2.5 g; mixed at 20° C. for 1 hour, decanted 15 minutes; average of three injections
[2] = pKa by automated Mettler Toledo titration; conditions: water (50 weight % aqueous amine solution)

| area counts (averaged GC peak area of tested amine in neat heptane phase) [1] [area counts] | pKa [2] | Structure (SMILES) |
| --- | --- | --- |
| 132 | 9.5 | OCC(O)CN1CCNCC1 (stereo not drawn) [PPD, 3-(piperazine-1-YL)propane-1,2-diol] |
| 13748 |  | C1CNCCN1 [Piperazine] |
